Measured values published in PMC5564600 (Oncotarget, 2017).

What was measured:
Assay in all cases: biochemical
Type in all cases: binding
panel of 442 kinases [1] = target: T1, panel of 442 kinases (Homo sapiens, UniProt P10721, V559D); settings: kinase KIT(V559D); for remaining activity at 1 µM: read-out: % of control at 1 µM
T1 construct: purchased Ambit Biosciences (scanMAXX KINOMEscan)

panel of 442 kinases [2] = target: T2, panel of 442 kinases (Homo sapiens, UniProt Q9UQ88); settings: CDC2L2; for remaining activity at 1 µM: read-out: % of control at 1 µM
T2 construct: purchased Ambit Biosciences (scanMAXX KINOMEscan)
T2 sequence (Q9UQ88 1-783): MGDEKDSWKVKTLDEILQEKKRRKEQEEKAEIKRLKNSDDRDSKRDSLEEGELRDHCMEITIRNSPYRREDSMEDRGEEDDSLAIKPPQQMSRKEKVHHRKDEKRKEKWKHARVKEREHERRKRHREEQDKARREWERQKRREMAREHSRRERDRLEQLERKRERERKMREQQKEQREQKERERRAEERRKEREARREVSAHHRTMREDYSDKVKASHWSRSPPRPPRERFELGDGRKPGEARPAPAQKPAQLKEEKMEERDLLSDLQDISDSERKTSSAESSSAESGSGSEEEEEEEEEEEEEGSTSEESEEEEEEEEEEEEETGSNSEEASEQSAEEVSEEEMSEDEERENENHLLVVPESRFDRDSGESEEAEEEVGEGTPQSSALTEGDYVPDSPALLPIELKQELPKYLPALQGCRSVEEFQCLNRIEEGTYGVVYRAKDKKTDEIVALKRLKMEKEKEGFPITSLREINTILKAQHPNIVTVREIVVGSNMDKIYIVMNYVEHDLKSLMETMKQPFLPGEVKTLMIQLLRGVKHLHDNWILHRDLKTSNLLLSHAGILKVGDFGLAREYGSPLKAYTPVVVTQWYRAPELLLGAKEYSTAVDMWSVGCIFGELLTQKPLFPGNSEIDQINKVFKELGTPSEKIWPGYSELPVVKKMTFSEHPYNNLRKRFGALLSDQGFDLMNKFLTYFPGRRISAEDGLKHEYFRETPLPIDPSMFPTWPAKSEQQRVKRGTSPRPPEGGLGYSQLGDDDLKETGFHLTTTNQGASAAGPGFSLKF

panel of 442 kinases [3] = target: T3, panel of 442 kinases (Homo sapiens, UniProt P10721, V559D/V654A); settings: kinase KIT(V559D,V654A); for remaining activity at 1 µM: read-out: % of control at 1 µM
T3 construct: purchased Ambit Biosciences (scanMAXX KINOMEscan)

panel of 442 kinases [4] = target: T4, panel of 442 kinases (Homo sapiens, UniProt O75385); settings: kinase ULK1; for remaining activity at 1 µM: read-out: ULK1 (% of control at 1 µM)
T4 construct: purchased Ambit Biosciences (scanMAXX KINOMEscan)
T4 sequence (O75385 1-1050): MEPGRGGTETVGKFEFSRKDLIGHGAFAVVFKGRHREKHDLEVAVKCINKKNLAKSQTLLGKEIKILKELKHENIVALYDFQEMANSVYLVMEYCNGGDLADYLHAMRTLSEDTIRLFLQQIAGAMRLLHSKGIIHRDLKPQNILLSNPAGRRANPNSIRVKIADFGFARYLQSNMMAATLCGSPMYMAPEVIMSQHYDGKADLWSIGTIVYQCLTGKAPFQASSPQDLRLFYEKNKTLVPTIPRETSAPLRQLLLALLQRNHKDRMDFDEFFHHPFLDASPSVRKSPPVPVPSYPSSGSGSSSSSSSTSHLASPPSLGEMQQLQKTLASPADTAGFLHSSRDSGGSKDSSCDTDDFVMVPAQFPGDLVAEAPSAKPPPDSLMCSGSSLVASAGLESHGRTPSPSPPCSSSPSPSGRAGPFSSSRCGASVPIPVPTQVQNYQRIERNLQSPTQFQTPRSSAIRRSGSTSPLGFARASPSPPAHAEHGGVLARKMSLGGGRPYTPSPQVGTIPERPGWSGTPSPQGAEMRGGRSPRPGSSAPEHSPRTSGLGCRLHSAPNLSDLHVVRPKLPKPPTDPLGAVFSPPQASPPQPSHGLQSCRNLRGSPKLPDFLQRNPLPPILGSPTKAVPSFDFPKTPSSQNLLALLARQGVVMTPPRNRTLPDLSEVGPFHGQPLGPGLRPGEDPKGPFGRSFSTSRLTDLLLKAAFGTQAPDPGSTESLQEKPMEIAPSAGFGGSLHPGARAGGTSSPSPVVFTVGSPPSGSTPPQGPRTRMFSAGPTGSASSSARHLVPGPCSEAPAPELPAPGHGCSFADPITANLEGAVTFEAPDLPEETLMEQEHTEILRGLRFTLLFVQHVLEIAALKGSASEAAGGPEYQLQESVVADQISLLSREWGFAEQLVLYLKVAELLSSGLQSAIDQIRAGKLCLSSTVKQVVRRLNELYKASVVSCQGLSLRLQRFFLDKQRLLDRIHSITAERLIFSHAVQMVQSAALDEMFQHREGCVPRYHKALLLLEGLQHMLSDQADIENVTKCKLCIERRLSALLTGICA

panel of 442 kinases [5] = target: T5, panel of 442 kinases (Homo sapiens, UniProt P50750); settings: CDK9; for remaining activity at 1 µM: read-out: % of control at 1 µM
T5 construct: purchased Ambit Biosciences (scanMAXX KINOMEscan)

panel of 442 kinases [6] = target: T6, panel of 442 kinases (Homo sapiens, UniProt Q9P2K8, S808G); settings: kinase GCN2(Kin.Dom.2,S808G); for remaining activity at 1 µM: read-out: % of control at 1 µM
T6 construct: purchased Ambit Biosciences (scanMAXX KINOMEscan)

[7] = 10 µM, read-out: % of control at 10 µM

T5 sequence (P50750 whole entry): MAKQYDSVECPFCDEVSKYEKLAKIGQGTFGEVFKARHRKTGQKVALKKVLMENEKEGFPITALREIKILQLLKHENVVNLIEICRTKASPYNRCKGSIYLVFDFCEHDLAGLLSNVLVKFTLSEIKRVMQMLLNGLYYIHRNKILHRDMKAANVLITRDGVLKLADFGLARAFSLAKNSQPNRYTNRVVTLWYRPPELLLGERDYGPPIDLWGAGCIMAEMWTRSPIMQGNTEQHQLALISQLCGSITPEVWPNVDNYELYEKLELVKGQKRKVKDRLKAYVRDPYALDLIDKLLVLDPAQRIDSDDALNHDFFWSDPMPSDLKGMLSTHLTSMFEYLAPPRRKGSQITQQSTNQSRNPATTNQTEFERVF
T1 sequence (P10721 26-976 V559D): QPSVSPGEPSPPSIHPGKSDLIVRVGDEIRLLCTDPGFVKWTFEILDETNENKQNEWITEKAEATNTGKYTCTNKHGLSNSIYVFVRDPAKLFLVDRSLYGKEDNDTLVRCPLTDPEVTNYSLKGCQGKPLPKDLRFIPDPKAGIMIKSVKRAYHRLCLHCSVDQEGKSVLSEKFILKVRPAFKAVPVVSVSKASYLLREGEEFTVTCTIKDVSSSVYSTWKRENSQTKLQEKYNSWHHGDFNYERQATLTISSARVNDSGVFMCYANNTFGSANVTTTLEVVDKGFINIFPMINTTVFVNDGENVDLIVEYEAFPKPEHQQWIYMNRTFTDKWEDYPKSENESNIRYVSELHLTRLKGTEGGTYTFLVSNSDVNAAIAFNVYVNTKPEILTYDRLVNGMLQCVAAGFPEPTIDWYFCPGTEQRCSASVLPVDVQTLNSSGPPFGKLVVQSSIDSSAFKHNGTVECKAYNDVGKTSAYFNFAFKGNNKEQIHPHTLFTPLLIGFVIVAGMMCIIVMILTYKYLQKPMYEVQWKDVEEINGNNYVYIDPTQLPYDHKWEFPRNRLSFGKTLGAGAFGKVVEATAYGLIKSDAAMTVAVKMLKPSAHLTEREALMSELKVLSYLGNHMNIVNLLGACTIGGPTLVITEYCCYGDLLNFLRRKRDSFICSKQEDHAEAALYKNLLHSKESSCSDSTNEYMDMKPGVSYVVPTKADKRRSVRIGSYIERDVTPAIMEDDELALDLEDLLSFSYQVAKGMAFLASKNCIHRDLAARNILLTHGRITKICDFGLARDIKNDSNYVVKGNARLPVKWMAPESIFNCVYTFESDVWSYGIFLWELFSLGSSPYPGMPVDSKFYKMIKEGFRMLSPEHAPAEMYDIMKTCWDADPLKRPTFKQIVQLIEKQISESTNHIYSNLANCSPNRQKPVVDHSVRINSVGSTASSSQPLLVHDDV
T6 sequence (Q9P2K8 whole entry S808G): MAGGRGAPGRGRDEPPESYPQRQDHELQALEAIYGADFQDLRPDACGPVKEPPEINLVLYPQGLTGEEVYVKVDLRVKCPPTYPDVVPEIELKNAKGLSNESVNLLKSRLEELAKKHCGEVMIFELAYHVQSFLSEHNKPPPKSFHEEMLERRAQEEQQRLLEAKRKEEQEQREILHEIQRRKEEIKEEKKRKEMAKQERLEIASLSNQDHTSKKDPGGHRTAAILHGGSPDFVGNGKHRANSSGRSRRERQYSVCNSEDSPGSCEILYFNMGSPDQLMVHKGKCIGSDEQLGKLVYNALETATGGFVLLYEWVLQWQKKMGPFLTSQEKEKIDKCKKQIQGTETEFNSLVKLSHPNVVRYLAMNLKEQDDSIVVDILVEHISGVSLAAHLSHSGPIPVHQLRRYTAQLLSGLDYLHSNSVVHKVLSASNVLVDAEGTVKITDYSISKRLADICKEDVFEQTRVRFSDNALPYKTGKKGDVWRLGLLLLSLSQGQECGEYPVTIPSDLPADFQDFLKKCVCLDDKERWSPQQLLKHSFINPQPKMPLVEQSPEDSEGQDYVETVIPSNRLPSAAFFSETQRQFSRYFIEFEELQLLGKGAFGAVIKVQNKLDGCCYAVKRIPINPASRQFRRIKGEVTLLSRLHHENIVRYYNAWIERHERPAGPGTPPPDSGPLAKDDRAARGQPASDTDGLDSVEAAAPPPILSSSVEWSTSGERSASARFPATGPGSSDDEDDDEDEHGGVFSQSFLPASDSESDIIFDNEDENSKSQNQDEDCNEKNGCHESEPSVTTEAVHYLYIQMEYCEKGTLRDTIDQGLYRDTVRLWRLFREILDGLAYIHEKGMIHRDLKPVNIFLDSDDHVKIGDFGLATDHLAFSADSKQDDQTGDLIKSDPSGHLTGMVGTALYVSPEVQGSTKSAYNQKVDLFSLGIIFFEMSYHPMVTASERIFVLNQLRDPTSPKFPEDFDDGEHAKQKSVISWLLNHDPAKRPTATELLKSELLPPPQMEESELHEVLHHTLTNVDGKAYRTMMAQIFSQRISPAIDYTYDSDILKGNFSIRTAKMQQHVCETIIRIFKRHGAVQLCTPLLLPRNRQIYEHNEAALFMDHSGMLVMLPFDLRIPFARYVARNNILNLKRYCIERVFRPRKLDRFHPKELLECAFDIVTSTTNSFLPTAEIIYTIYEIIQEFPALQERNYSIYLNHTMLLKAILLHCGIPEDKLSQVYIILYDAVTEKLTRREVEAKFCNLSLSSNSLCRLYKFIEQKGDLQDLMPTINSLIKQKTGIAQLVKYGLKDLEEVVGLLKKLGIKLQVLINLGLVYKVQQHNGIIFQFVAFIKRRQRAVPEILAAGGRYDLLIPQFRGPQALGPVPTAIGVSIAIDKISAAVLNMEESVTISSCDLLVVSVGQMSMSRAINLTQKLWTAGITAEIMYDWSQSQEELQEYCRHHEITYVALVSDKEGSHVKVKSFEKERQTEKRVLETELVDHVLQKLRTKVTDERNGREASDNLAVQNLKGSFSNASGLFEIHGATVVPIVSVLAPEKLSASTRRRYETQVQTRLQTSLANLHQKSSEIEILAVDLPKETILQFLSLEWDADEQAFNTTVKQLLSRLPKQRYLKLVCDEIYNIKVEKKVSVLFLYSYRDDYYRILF
T3 sequence (P10721 26-976 V559D/V654A): as the sequence (P10721 26-976 V559D) above, with V629A counted along it

## Nc1cc(C(F)(F)F)c(-c2cc(N3CCOCC3)nc(N3CCOCC3)n2)cn1 [Buparlisib]
Panel of 442 kinases [1]
  remaining activity at 1 µM: 100%
Panel of 442 kinases [1]; [7]
  remaining activity at 10 µM: 66%
Panel of 442 kinases [2]
  remaining activity at 1 µM: 100%
Panel of 442 kinases [2]; [7]
  remaining activity at 10 µM: 99%
Panel of 442 kinases [3]
  remaining activity at 1 µM: 100%
Panel of 442 kinases [3]; [7]
  remaining activity at 10 µM: 98%
Panel of 442 kinases [4]
  remaining activity at 1 µM: 100%
Panel of 442 kinases [4]; 10 µM, read-out: ULK1 (% of control at 10 µM)
  remaining activity at 10 µM: 100%
Panel of 442 kinases [5]
  remaining activity at 1 µM: 85%
Panel of 442 kinases [5]; [7]
  remaining activity at 10 µM: 85%
Panel of 442 kinases [6]
  remaining activity at 1 µM: 100%
Panel of 442 kinases [6]; [7]
  remaining activity at 10 µM: 100%

## Cn1c(=O)n(-c2ccc(C(C)(C)C#N)cc2)c2c3cc(-c4cnc5ccccc5c4)ccc3ncc21 [Dactolisib, 2-methyl-2-[4-(3-methyl-2-oxo-8-quinolin-3-yl-2,3-dihydroimidazo[4,5-c]quinolin-1-yl)-phenyl] propionitrile]
Panel of 442 kinases [1]
  remaining activity at 1 µM: 65%
Panel of 442 kinases [2]
  remaining activity at 1 µM: 89%
Panel of 442 kinases [3]
  remaining activity at 1 µM: 84%
Panel of 442 kinases [4]
  remaining activity at 1 µM: 88%
Panel of 442 kinases [5]
  remaining activity at 1 µM: 91%
Panel of 442 kinases [6]
  remaining activity at 1 µM: 87%

## COc1ncc(-c2ccc3nccc(-c4ccnnc4)c3c2)cc1NS(=O)(=O)c1ccc(F)cc1F [Omipalisib]
Panel of 442 kinases [1]
  remaining activity at 1 µM: 96%
Panel of 442 kinases [2]
  remaining activity at 1 µM: 100%
Panel of 442 kinases [3]
  remaining activity at 1 µM: 100%
Panel of 442 kinases [4]
  remaining activity at 1 µM: 99%
Panel of 442 kinases [5]
  remaining activity at 1 µM: 100%
Panel of 442 kinases [6]
  remaining activity at 1 µM: 100%

## FC(F)c1nc2ccccc2n1-c1nc(N2CCOCC2)nc(N2CCOCC2)n1 [ZSTK474, 2-(difluoromethyl)-1-[4,6-di(4-morpholinyl)-1,3,5-triazin-2-yl]-1H-benzimidazole]
Panel of 442 kinases [1]
  remaining activity at 1 µM: 84%
Panel of 442 kinases [2]
  remaining activity at 1 µM: 100%
Panel of 442 kinases [3]
  remaining activity at 1 µM: 95%
Panel of 442 kinases [4]
  remaining activity at 1 µM: 69%
Panel of 442 kinases [5]
  remaining activity at 1 µM: 100%
Panel of 442 kinases [6]
  remaining activity at 1 µM: 89%
